Assays:
Assay in all cases: relative viability (nuclei count vs DMSO), 5 days (fraction); higher = more cells survive
[1] = system: HCC-827
Method in brief: (§1)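 The day after seeding in 1536-well plates, lung cancer cell lines were treated by pin tool with a single drug, or with a fixed anchor-drug dose together with five library-drug doses (not always all listed) in √10 steps. After 5 days, a combined fix-and-stain solution (final 0.05% Triton X-100, 1% formaldehyde, 1 ug/ml Hoechst) was added. Nuclei counted on 4× images gave relative viability as treated counts over vehicle counts, reported as the median of duplicate plates.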

[2] = system: NCI-H2170
Method in brief: as §1

[3] = system: NCI-H522
Method in brief: as §1

[4] = system: BEN
Method in brief: as §1

[5] = system: LXF-289
Method in brief: as §1

[6] = system: NCI-H1563
Method in brief: as §1

[7] = system: HCC-44
Method in brief: as §1

[8] = system: HARA
Method in brief: as §1

[9] = system: COR-L 105
Method in brief: as §1

[10] = system: PC-3 [JPC-3]
Method in brief: as §1

[11] = system: HOP-62
Method in brief: as §1

[12] = system: LCLC-97TM1
Method in brief: as §1

[13] = system: NCI-H2009
Method in brief: as §1

[14] = system: NCI-H1993
Method in brief: as §1

[15] = system: LC-2-ad
Method in brief: as §1

[16] = system: NCI-H2087
Method in brief: as §1

[17] = system: PC-14
Method in brief: as §1

[18] = system: HCC-15
Method in brief: as §1

[19] = system: HCC-366
Method in brief: as §1

[20] = system: LU99A
Method in brief: as §1

[21] = system: COR-L23
Method in brief: as §1

[22] = system: NCI-H2126
Method in brief: as §1

[23] = system: SK-MES-1
Method in brief: as §1

[24] = system: CAL-12T
Method in brief: as §1

`CCCCCCCCCCCC1=C(O)C(=O)C=C(O)C1=O` [Embelin] + Nc1nc2[nH]cc(CCc3ccc(C(=O)N[C@@H](CCC(=O)O)C(=O)O)cc3)c2c(=O)[nH]1 [Pemetrexed] (partner 0.2 µM) was tested, and the relative viability ([1]; first compound 0.08 µM) was 0.26, the relative viability ([1]; first compound 0.8 µM) was 0.284 and the relative viability ([1]; first compound 2.53 µM) was 0.285. The relative viability ([1]; first compound 8 µM) was 0.259, the relative viability ([2]; first compound 0.08 µM) was 0.264 and the relative viability ([2]; first compound 0.8 µM) was 0.252. The relative viability ([2]; first compound 2.53 µM) was 0.276, the relative viability ([2]; first compound 8 µM) was 0.274 and the relative viability ([3]; first compound 0.08 µM) was 0.901. It also gave a relative viability ([3]; first compound 0.8 µM) of 1.06, a relative viability ([3]; first compound 2.53 µM) of 0.957 and a relative viability ([3]; first compound 8 µM) of 0.837. The relative viability ([4]; first compound 0.08 µM) was 0.763, the relative viability ([4]; first compound 0.8 µM) was 0.823 and the relative viability ([4]; first compound 2.53 µM) was 1.03. The relative viability ([4]; first compound 8 µM) was 0.731, the relative viability ([5]; first compound 0.08 µM) was 0.863 and the relative viability ([5]; first compound 0.8 µM) was 0.915. It also gave a relative viability ([5]; first compound 2.53 µM) of 0.866, a relative viability ([5]; first compound 8 µM) of 1.08 and a relative viability ([6]; first compound 0.08 µM) of 0.742. It also gave a relative viability ([6]; first compound 0.8 µM) of 0.767, a relative viability ([6]; first compound 2.53 µM) of 0.693 and a relative viability ([6]; first compound 8 µM) of 0.713. It also gave a relative viability ([7]; first compound 0.08 µM) of 0.634, a relative viability ([7]; first compound 0.8 µM) of 0.632 and a relative viability ([7]; first compound 2.53 µM) of 0.599. For the same compound, the relative viability ([7]; first compound 8 µM) was 0.699, the relative viability ([8]; first compound 0.08 µM) was 0.292 and the relative viability ([8]; first compound 0.8 µM) was 0.279. The relative viability ([8]; first compound 2.53 µM) was 0.256, the relative viability ([8]; first compound 8 µM) was 0.208 and the relative viability ([9]; first compound 0.08 µM) was 1.15. It also gave a relative viability ([9]; first compound 0.8 µM) of 1.21, a relative viability ([9]; first compound 2.53 µM) of 1 and a relative viability ([9]; first compound 8 µM) of 1.08. It also gave a relative viability ([10]; first compound 0.08 µM) of 1.04, a relative viability ([10]; first compound 0.8 µM) of 1.17 and a relative viability ([10]; first compound 2.53 µM) of 1.07. The relative viability ([10]; first compound 8 µM) was 0.634, the relative viability ([11]; first compound 0.08 µM) was 0.384 and the relative viability ([11]; first compound 0.8 µM) was 0.365. For the same compound, the relative viability ([11]; first compound 2.53 µM) was 0.308, the relative viability ([11]; first compound 8 µM) was 0.303 and the relative viability ([12]; first compound 0.08 µM) was 0.17. The relative viability ([12]; first compound 0.8 µM) was 0.166, the relative viability ([12]; first compound 2.53 µM) was 0.163 and the relative viability ([12]; first compound 8 µM) was 0.182. It also gave a relative viability ([13]; first compound 0.08 µM) of 1.08, a relative viability ([13]; first compound 0.8 µM) of 1.09 and a relative viability ([13]; first compound 2.53 µM) of 1.06. The relative viability ([13]; first compound 8 µM) was 1.01, the relative viability ([14]; first compound 0.08 µM) was 0.609 and the relative viability ([14]; first compound 0.8 µM) was 0.568. The relative viability ([14]; first compound 2.53 µM) was 0.581, the relative viability ([14]; first compound 8 µM) was 0.554 and the relative viability ([15]; first compound 0.08 µM) was 0.274. It also gave a relative viability ([15]; first compound 0.8 µM) of 0.282, a relative viability ([15]; first compound 2.53 µM) of 0.257 and a relative viability ([15]; first compound 8 µM) of 0.288. It also gave a relative viability ([16]; first compound 0.08 µM) of 0.745, a relative viability ([16]; first compound 0.8 µM) of 0.517 and a relative viability ([16]; first compound 2.53 µM) of 0.748. It also gave a relative viability ([16]; first compound 8 µM) of 0.646, a relative viability ([17]; first compound 0.08 µM) of 0.158 and a relative viability ([17]; first compound 0.8 µM) of 0.126. The relative viability ([17]; first compound 2.53 µM) was 0.134, the relative viability ([17]; first compound 8 µM) was 0.153 and the relative viability ([18]; first compound 0.08 µM) was 0.226. The relative viability ([18]; first compound 0.8 µM) was 0.24, the relative viability ([18]; first compound 2.53 µM) was 0.233 and the relative viability ([18]; first compound 8 µM) was 0.207. For the same compound, the relative viability ([19]; first compound 0.08 µM) was 0.161, the relative viability ([19]; first compound 0.8 µM) was 0.149 and the relative viability ([19]; first compound 2.53 µM) was 0.151. For the same compound, the relative viability ([19]; first compound 8 µM) was 0.236, the relative viability ([20]; first compound 0.08 µM) was 0.182 and the relative viability ([20]; first compound 0.8 µM) was 0.178. It also gave a relative viability ([20]; first compound 2.53 µM) of 0.15, a relative viability ([20]; first compound 8 µM) of 0.192 and a relative viability ([21]; first compound 0.08 µM) of 0.196. The relative viability ([21]; first compound 0.8 µM) was 0.196, the relative viability ([21]; first compound 2.53 µM) was 0.201 and the relative viability ([21]; first compound 8 µM) was 0.191. For the same compound, the relative viability ([22]; first compound 0.08 µM) was 0.735, the relative viability ([22]; first compound 0.8 µM) was 0.636 and the relative viability ([22]; first compound 2.53 µM) was 0.654. It also gave a relative viability ([22]; first compound 8 µM) of 0.69, a relative viability ([23]; first compound 0.08 µM) of 1.01 and a relative viability ([23]; first compound 0.8 µM) of 1.05. The relative viability ([23]; first compound 2.53 µM) was 0.937, the relative viability ([23]; first compound 8 µM) was 0.824 and the relative viability ([24]; first compound 0.08 µM) was 1.11. For the same compound, the relative viability ([24]; first compound 0.8 µM) was 1.4, the relative viability ([24]; first compound 2.53 µM) was 1.1 and the relative viability ([24]; first compound 8 µM) was 1.06.

Reference: the supplement of paper PMC10307832
